Experimental data: PubChem BioAssay AID1918999 (Molecular Pharmacology Branch, DTP, NCI, 2023)

Tested on: 556581-035-R-J1-PDC complex spheroid growth
Assay: Anticancer human tumor 556581-035-R-J1-PDC patient-derived ovarian carcinoma cell line growth inhibition [AhR]
Conditions: for IC50: curve of first compound; for viability, T/C: stronger effect = lower value; active = viability on the fitted dose curve at most 10% of control; inactive = the rest
Method in brief: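 Spheroids combined tumor cells with HUVEC endothelial cells and human MSCs as stroma. AhR antagonists were paired with standard or investigational drugs, each dosed in half-log steps down from near clinical Cmax, or from 10 microM where Cmax was unknown.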

[1] = second compound 0.1 µM, first compound 0.0316 µM
[2] = second compound 0.1 µM, first compound 0.1 µM
[3] = second compound 0.1 µM, first compound 0.316 µM
[4] = second compound 0.1 µM, first compound 1 µM
[5] = second compound 0.316 µM, first compound 0.0316 µM
[6] = second compound 0.316 µM, first compound 0.1 µM
[7] = second compound 0.316 µM, first compound 0.316 µM
[8] = second compound 0.316 µM, first compound 1 µM
[9] = second compound 1 µM, first compound 0.0316 µM
[10] = second compound 1 µM, first compound 0.1 µM
[11] = second compound 1 µM, first compound 0.316 µM
[12] = second compound 1 µM, first compound 1 µM
[13] = second compound 3.16 µM, first compound 0.0316 µM
[14] = second compound 3.16 µM, first compound 0.1 µM
[15] = second compound 3.16 µM, first compound 0.316 µM
[16] = second compound 3.16 µM, first compound 1 µM
[17] = second compound 10 µM, first compound 0.0316 µM
[18] = second compound 10 µM, first compound 0.1 µM
[19] = second compound 10 µM, first compound 0.316 µM
[20] = second compound 10 µM, first compound 1 µM
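For viability, T/C in this document: compound exposure lasted 7 days; 100% = DMSO vehicle control growth.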

CC1COCCN1c1cc(-c2ccnn2C)c2ccnc(-c3ccn[nH]3)c2n1 (stereo not given) + CC(CO)NC(=O)c1cc(-c2ccc(Cl)cc2)nn(-c2cnn(C)c2)c1=O
295 nM: IC50 (second compound 10 µM)
398 nM: IC50 (second compound 3.16 µM)
inactive: viability, T/C (second compound 0.1 µM, first compound 0.00316 µM) 106% | viability, T/C (second compound 0.1 µM, first compound 0.01 µM) 109% | viability, T/C [1] 108% | viability, T/C [2] 79.7% | viability, T/C [3] 52.4% | viability, T/C [4] 47.1% | viability, T/C (second compound 0.316 µM, first compound 0.00316 µM) 107% | viability, T/C (second compound 0.316 µM, first compound 0.01 µM) 114% | viability, T/C [5] 104% | viability, T/C [6] 89.3% | viability, T/C [7] 56.3% | viability, T/C [8] 47% | viability, T/C (second compound 1 µM, first compound 0.00316 µM) 118% | viability, T/C (second compound 1 µM, first compound 0.01 µM) 120% | viability, T/C [9] 106% | viability, T/C [10] 84.4% | viability, T/C [11] 64.6% | viability, T/C [12] 48.5% | viability, T/C (second compound 3.16 µM, first compound 0.00316 µM) 114% | viability, T/C (second compound 3.16 µM, first compound 0.01 µM) 130% | viability, T/C [13] 114% | viability, T/C [14] 80.7% | viability, T/C [15] 53.6% | viability, T/C [16] 43.2% | viability, T/C (second compound 10 µM, first compound 0.00316 µM) 107% | viability, T/C (second compound 10 µM, first compound 0.01 µM) 119% | viability, T/C [17] 103% | viability, T/C [18] 68.6% | viability, T/C [19] 50.5% | viability, T/C [20] 44.8%
944 nM: IC50 (second compound 1 µM)
474 nM: IC50 (second compound 0.1 µM)
690 nM: IC50 (second compound 0.316 µM)

CC1COCCN1c1cc(C2(S(C)(=N)=O)CC2)nc(-c2ccnc3[nH]ccc23)n1 (stereo not given) + CC(CO)NC(=O)c1cc(-c2ccc(Cl)cc2)nn(-c2cnn(C)c2)c1=O
> 10000 nM: IC50 (second compound 0.1 µM) | IC50 (second compound 0.316 µM) | IC50 (second compound 1 µM) | IC50 (second compound 3.16 µM) | IC50 (second compound 10 µM)
inactive: viability, T/C [1] 116% | viability, T/C [2] 113% | viability, T/C [3] 101% | viability, T/C [4] 92% | viability, T/C (second compound 0.1 µM, first compound 3.16 µM) 86.2% | viability, T/C (second compound 0.1 µM, first compound 10 µM) 69.1% | viability, T/C [5] 97.1% | viability, T/C [6] 113% | viability, T/C [7] 105% | viability, T/C [8] 90.1% | viability, T/C (second compound 0.316 µM, first compound 3.16 µM) 81.4% | viability, T/C (second compound 0.316 µM, first compound 10 µM) 70.2% | viability, T/C [9] 111% | viability, T/C [10] 105% | viability, T/C [11] 116% | viability, T/C [12] 98.2% | viability, T/C (second compound 1 µM, first compound 3.16 µM) 78.2% | viability, T/C (second compound 1 µM, first compound 10 µM) 67.6% | viability, T/C [13] 105% | viability, T/C [14] 104% | viability, T/C [15] 107% | viability, T/C [16] 89.4% | viability, T/C (second compound 3.16 µM, first compound 3.16 µM) 83.5% | viability, T/C (second compound 3.16 µM, first compound 10 µM) 71.8% | viability, T/C [17] 118% | viability, T/C [18] 119% | viability, T/C [19] 110% | viability, T/C [20] 101% | viability, T/C (second compound 10 µM, first compound 3.16 µM) 81.2% | viability, T/C (second compound 10 µM, first compound 10 µM) 72.5%
